Source: patent US11046991B2, “Rapid preconcentration of viable bacteria using magnetic ionic liquid for PCR amplification and culture-based diagnostics” (priority 2017, dated 2021)

What was measured:
[1] = tested on: E. coli; assay: PCR amplification of LB back-extraction solution after MIL-based extraction
Procedure: (§1) A general schematic for the MIL-based cell extraction procedure is depicted in FIG. 10. In a 4 mL screw cap glass vial, a controlled volume (e.g., 10 μL) of MIL was added to 2 mL of diluted cell suspension and dispersed into microdroplets by vortex agitation for 15-120 s. Following the dispersive extraction, a 0.9 T magnetic field was applied to collect the cell-enriched MIL extraction phase. After the aqueous phase was decanted, the MIL was subjected to a static wash with 2 mL of deionized water to ensure that residual cell suspension was removed. The extracted E. coli was recovered from the MIL solvent by vortexing the MIL in 1 mL of LB media from 30 to 300 s. Following back-extraction, aliquots of the cell-enriched LB media were cultured on selective agar as well as analyzed by PCR.
Following the recovery of E. coli cells from the MIL extraction phase, an aliquot of the LB back-extraction solution was analyzed by PCR. […] The thermal protocol used for amplification of the MTAP gene was as follows: 5 min initial denaturation at 95° C. followed by 30 cycles of 30 s denaturation at 95° C., 45 s annealing at 54° C., and elongation for 45 s at 72° C.
After thermal cycling, the PCR products were mixed with 10 μL of bromophenol blue tracking dye solution (30% glycerol v/v) and loaded on a 1% agarose gel stained with SYBR Safe DNA gel stain. The PCR amplicon was subjected to electrophoresis at approximately 4 V cm^−1 and subsequently visualized using a transilluminator.
To improve detection limits, cells were recovered from the MIL phase using […] and a 1 μL aliquot of LB media was analyzed by PCR amplification. […] MILs as extraction media.
MIL. […] 1999; 37:2479-82). It should be noted that PCR assays are unable to distinguish between live and dead cells and, therefore, are complementary to microbiological culture for the determination of viable cells in a sample.

[2] = 1 second vial inversion (viscosity comparison); format: physicochemical; conditions: 1 second inversion of each MIL
Description: FIG. 2 compares the viscosities of [P66614^+]2[MnCl4^2−], [P66614^+][Ni(hfacac)3^−], and [P66614^+][Nd(hfacac)4^−] by performing a 1 second inversion of each MIL.

[3] = tested on: E. coli K12 cells; format: cell-based
Procedure: Since culture-based methods are contingent upon the isolation of viable bacteria, the detection of E. coli following MIL-based cell extraction is influenced by the cytotoxicity of MILs. To study the effect of MILs on the growth of E. coli, a 1 mL aliquot of LB media was inoculated with 8.0×10^2±0.5×10^2 CFUs mL^−1 and spiked with approximately 10 μL of a MIL. The mixture was agitated by vortex to simulate the recovery procedure after which a 100 μL aliquot of the suspension was plated on selective agar.

[4] = Magnetic susceptibility, SQUID magnetometer; format: physicochemical
Procedure: The μeff values for each exemplary MIL were determined using a Quantum Design MPMS SQUID magnetometer following procedures similar to those previously reported. (Y. Mudryk, P. Manfrinetti, V. Smetana, J. Liu, M. L. Fornasini, A. Provino, V. K. Pecharsky, G. J. Miller and K. A. Gschneidner, J. Alloys Compd, 2013, 557, 252-260).

[5] = tested on: E. coli; assay: MIL-based extraction of viable E. coli, selective culture and colony enumeration; conditions: extraction time 30 s to 300 s
[6] = tested on: E. coli; assay: as above; conditions: for visible colonies after back-extraction with LB media and culture on selective agar: aqueous solutions of 1.68×10^5 CFUs mL^−1
Procedure: For each cell extraction experiment, 2 mL of sterile LB media with 100 μg mL^−1 carbenicillin was inoculated with 0.5 μL of E. coli glycerol stock and incubated overnight at 37° C. and 225 rpm. The overnight culture was centrifuged at 2820 g for 8 min and the supernatant discarded. The cells were then vortexed for 15 s in 2 mL of deionized water and centrifuged once again at 2820 g for 8 min. Following a total of three washes, the cells were re-suspended in 1 mL of deionized water. The concentration of cells within the suspension was initially determined by measuring the optical density of the sample at 600 nm (OD600), where an OD600 equal to 1.000 represents 8×10^8 E. coli cells mL^−1. The bacterial suspension was diluted to an OD600 value of 0.021 (1.68×10^7 cells mL^−1), after which 10-fold serial dilutions were performed to yield the desired sample concentration. Since the sample concentrations were below the detection limit of the spectrophotometer, the final concentration of each sample (in CFUs mL^−1) was obtained using a plate counting method. Briefly, 15 μL of diluted cell suspension were mixed with 985 μL of LB media and vortexed for 3 min. A […] aliquot of the suspension was spread onto a selective LB agar plate with 100 μg mL^−1 carbenicillin and incubated overnight at 37° C. to obtain visible colonies.
as §1
To detect viable bacteria recovered from the MIL extraction solvent, a culture-based method selective for E. coli transformants was employed. Following MIL-based extraction, a 100 μL aliquot of the LB back-extraction solution was plated on LB agar containing 100 μg mL^−1 carbenicillin and incubated overnight at 37° C. Visible colonies were counted, tabulated, and compared to the colonies obtained for the sample prior to extraction. The enrichment factor (EF) from the MIL-based extraction was calculated by Equation 1, where CMIL is the concentration of CFUs within the MIL extraction phase and CS represents the concentration of CFUs in the bacterial suspension prior to extraction. EF=CMIL/CS Equation 1
To determine if MILs can extract viable E. coli cells, aqueous solutions of 1.68×10^5 CFUs mL^−1 were extracted with each of the seven MILs using an approach that is similar to one depicted in FIG. 10. […] [Co(hfacac)3^−] MILs with the greatest number of colonies obtained from the Ni(II)-based MIL extractions.

[7] = Viscosity, cone and plate viscometer; format: physicochemical; conditions: 23.7° C.
Procedure: Proton NMR spectra (^1H) were recorded using a Bruker 500 MHz nuclear magnetic resonance spectrometer. Solvent peaks were used as reference values for the reporting of chemical shifts. Elemental analyses were obtained using a Perkin Elmer 2100 Series II CHN/S Analyzer (Waltham, Mass., USA). Mass spectra were obtained using an Agilent 6230 TOF LC/MS (Santa Clara, Calif., USA). Viscosity measurements were obtained using a Wells/Brookfield DV1 cone and plate viscometer using a CPA-51Z cone spindle. Each MIL was dried in a vacuum oven for 48 hours at 50° C. ensuring any water or residual solvents were completely removed from the MILs. Sample volumes of 0.5 mL were used for all MILs at a temperature (23.7° C.).

[8] = Pipette transfer at room temperature (preliminary viscosity testing); format: physicochemical; conditions: neat MIL, without heating
Procedure: (§2) Pairing of intermediate 1a to an imidazolium-based cation was carried out for preliminary viscosity and hydrophobicity testing. A metathesis reaction was performed between 1-(6-hydroxyhexyl)-3-methylimidazolium chloride [MC6OHIM^+][Cl^−] and intermediate 1a to form [MC6OHIM^+] [Co(hfacac)3^−]. […] Since the broad applicability of hydrophobic MILs is very much dependent upon the ease with which they can be transferred using traditional liquid handling methods, the [P66614^+] cation was selected for preparation of the hfacac-based MILs.

[9] = Water solubility observation of intermediates and preliminary MILs (hydrophobicity testing); format: physicochemical; conditions: color change in the aqueous solution two hours after addition of the MIL
Procedure: The [P66614^+][Cl^−] IL is commercially available.
as §2

[10] = tested on: E. coli; assay: Direct PCR amplification of cell-enriched MIL phase; conditions: 0.5 μL cell-enriched MIL phase directly in PCR mixture
Procedure: Nucleic acid-based methods (e.g., PCR) have become increasingly popular for the detection of pathogens in food, environmental, and clinical samples to increase sample throughput and achieve lower detection limits. […] [Co(hfacac)3^−] MIL under optimized conditions. After extraction, 0.5 μL of the cell-enriched MIL phase was directly transferred into the PCR reagent mixture and heated at 95° C. for 5 min to induce cell lysis and the release of nucleic acids into solution. […] While the direct PCR detection modality provided a rapid assay for the detection of E. coli, the method was only suitable for the detection of relatively large quantities of cells (approximately 10^7 CFUs mL^−1) in aqueous samples likely due to inhibition caused by the MIL.

[11] = Solubility of MILs in organic solvents (solvent miscibility); format: physicochemical; conditions: S with footnotes b-e: organic solvents and water, MIL to solvent ratio
Description: Owing to their unique solvation capabilities and high thermal stability, ILs have been successfully employed in organic synthesis either as reaction media or catalysts. An evaluation of the hydrophobic MIL solubility in a wide range of organic solvents may provide a fundamental understanding into their solvent properties. This could be instrumental for designing MIL-based reaction media, where the MIL can be selectively separated from the reaction products using an external magnetic field. […] The transition-metal based […] fully miscible in all of the organic solvents except DMSO. […] However, as the polarity value of the solvent drops below 0.117, the transition-metal based MILs show decreased solubilities at a 10% (v/v) MIL to solvent ratio. […] The solubility of these MILs in many different organic solvents adds to their versatility and use in numerous applications.

CCCCCCCCCCCCCC[P+](CCCCCC)(CCCCCC)CCCCCC.O=C(C=C([O-])C(F)(F)F)C(F)(F)F.O=C(C=C([O-])C(F)(F)F)C(F)(F)F.O=C(C=C([O-])C(F)(F)F)C(F)(F)F.[Ni+2] [MIL 3, [P66614^+] tris(hexafluoroacetylaceto)nickelate(II)]
amplicon after extraction of cell filtrate (cell-free DNA) [1]: no amplicon was detected
E. coli concentration at which bacterial pDNA was detected by PCR ([1]; cell recovery in LB media prior to PCR, 2 mL sample): 1.68×10^4 CFUs mL^−1
movement down the vial [2]: flow easily toward the bottom of the vial
influence on the growth of E. coli ([3]; LB media with 8.0×10^2 CFUs mL^−1, approximately 10 μL of MIL, compared to unexposed standard): little to no influence on the growth of E. coli
μeff ([4]; at lower temperatures): 2.8 μB
enrichment factor (EF) [5]: approximately 15
change in EF with SOC media as back-extraction solution ([6]; 120 s back-extraction): no change in the EF was observed
enrichment factor (EF) ([6]; 120 s back-extraction in LB media, 30 s extraction): 15.4±0.8
enrichment factor (EF) ([6]; MIL volume of 5 μL, cell suspension at 1.68×10^4 CFUs mL^−1): 44.6±5.2
visible colonies after back-extraction with LB media and culture on selective agar [6]: visible colonies were observed
colonies with deionized water or 10 mM Tris-HCl (pH 8) as back-extraction solution ([6]; culture on selective agar): no detectable colonies
lowest E. coli concentration detected in aqueous solution ([6]; optimized conditions, viable cells, culture on selective agar): 1.68×10^4 CFUs mL^−1
viscosity [7]: 927 cP

C[n+]1ccn(CCCCCCO)c1.O=C(C=C([O-])C(F)(F)F)C(F)(F)F.O=C(C=C([O-])C(F)(F)F)C(F)(F)F.O=C(C=C([O-])C(F)(F)F)C(F)(F)F.[Co+2] [[MC6OHIM^+] [Co(hfacac)3^−]]
transfer with a pipette [8]: could not be transferred with a pipette
solubility in water [9]: soluble in water

CCCCCCCCCCCCCC[P+](CCCCCC)(CCCCCC)CCCCCC.O=C(C=C([O-])C(F)(F)F)C(F)(F)F.O=C(C=C([O-])C(F)(F)F)C(F)(F)F.O=C(C=C([O-])C(F)(F)F)C(F)(F)F.[Co+2] [[P66614^+] [Co(hfacac)3^−]]
quantity of cells detectable by direct PCR [10]: approximately 10^7 CFUs mL^−1
visible colonies after back-extraction with LB media and culture on selective agar [6]: visible colonies were observed

CCCCCCCCCCCCCC[P+](CCCCCC)(CCCCCC)CCCCCC [compound 1]
Solubility [11]: S^b,c,e
Cytotoxicity to E. coli [3]: Yes
μeff, effective magnetic moment ([4]; from magnetic susceptibility data, SQUID): 4.3 μB
Viable Bacteria ([6]; extraction of E. coli from aqueous samples, 1.68×10^5 CFUs mL^−1): No
viscosity [7]: 575.8 cP
